Consider 31 compounds from patent US7981893B2, “Heteroaryl compounds, compositions thereof, and methods of treatment therewith” (Signal Pharmaceuticals, LLC, priority 2006, dated 2011).

The target of series [1] is T1, PKCθ (Homo sapiens, UniProt Q04759).
T1 construct: purchased Invitrogen
Nature of the series: PKCθ IMAP Assay. The class given is biochemical. The following applies: IMAP fluorescence polarization screening assay, 35 μM ATP. Here is the method: The following is an example of an assay that can be used to determine the PKCθ inhibitory activity of a test compound. Reagents are prepared as follows:
Assay Buffer: 50 mM HEPES (pH 7.6), 10 mM MgCl, 0.1 mM EDTA, 5 mM MBP, 0.01% Triton, 1 mM DTT, 0.05 mg/ml phosphatidyl serine, 0.05 mg/ml diacylglycerol.
The final concentration of PKCθ (Invitrogen) is 0.5 nM. The final concentration of substrate (FAM-AKRRRLSSLRA) (Molecular Devices) is 100 nM. The final concentration of ATP in the reaction is 35 μM. The final concentration of DMSO in the reaction is 2.5%.
Enzyme is kept in 5 μl aliquots and stored at −80° C. prior to use. Test compound is allowed to pre-incubate with enzyme for 45 minutes before the reactions is initiated.
The reaction mixture consists of: 5 μl of test compound in 10% DMSO, 5 μl of 400 nM substrate (FAM-AKRRRLSSLRA), 5 μl of […] PKCθ, and 5 μl of 140 μM ATP (ATP is added to the reaction mixture last to initiate the reaction) per well.
The reaction is allowed to proceed for 60 minutes and is terminated by adding 30 μl per well of 90% Progressive A buffer/10% Progressive B buffer and a 1:400 dilution of binding beeds (Molecular Devices).
The reaction is given a binding incubation time of at least 30 minutes prior to reading the fluorescence polarization signal on an Analyst reader (the following detector settings are used: fluorescein excitation-485 nm, fluorescein emission-530 nm, fluorescein dichroic-505 nm).
On the technique in general: Polarisation of emitted light reports the rotation of a fluorescent probe.

T1 sequence (Q04759 whole entry): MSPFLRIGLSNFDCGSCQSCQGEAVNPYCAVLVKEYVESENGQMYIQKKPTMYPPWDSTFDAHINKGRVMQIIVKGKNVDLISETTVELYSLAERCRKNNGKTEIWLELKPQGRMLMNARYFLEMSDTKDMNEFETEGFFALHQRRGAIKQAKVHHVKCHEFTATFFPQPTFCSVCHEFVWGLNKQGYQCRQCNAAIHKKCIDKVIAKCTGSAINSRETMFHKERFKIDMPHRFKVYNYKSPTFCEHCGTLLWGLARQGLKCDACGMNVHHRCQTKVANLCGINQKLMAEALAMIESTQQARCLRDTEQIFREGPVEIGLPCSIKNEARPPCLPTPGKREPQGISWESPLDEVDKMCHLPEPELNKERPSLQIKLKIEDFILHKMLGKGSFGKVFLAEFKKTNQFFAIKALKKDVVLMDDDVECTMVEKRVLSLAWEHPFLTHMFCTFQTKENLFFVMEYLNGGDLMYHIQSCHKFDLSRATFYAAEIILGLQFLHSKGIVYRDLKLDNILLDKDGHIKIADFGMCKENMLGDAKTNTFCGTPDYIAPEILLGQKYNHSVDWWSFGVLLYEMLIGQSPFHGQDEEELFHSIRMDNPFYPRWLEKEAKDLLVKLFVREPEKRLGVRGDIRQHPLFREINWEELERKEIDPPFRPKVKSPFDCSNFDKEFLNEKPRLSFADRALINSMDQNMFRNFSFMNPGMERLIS

The IC50 is the concentration that inhibits the measured activity by half. Lower therefore signals greater potency. In series [1], `C[C@H](c1ccccc1)n1c(=O)[nH]c2ncc(-c3cccc4ccccc34)nc21` [Compound 3, (R)-6-(naphthalen-1-yl)-1-(1-phenylethyl)-1H-imidazo[4,5-b]pyrazin-2(3H)-one] gave an IC50 greater than 30 µM. The same measure, in the same setting: with `C[C@@H](c1ccccc1)n1c(=O)[nH]c2ncc(-c3cccc4ccccc34)nc21` [Compound 7, (S)-6-(naphthalen-1-yl)-1-(1-phenylethyl)-1H-imidazo[4,5-b]pyrazin-2(3H)-one] the figure was greater than 30 µM.

As to `CC(C)[C@H](CO)n1c(=O)[nH]c2ncc(-c3ccccc3)nc21` [Compound 9, (R)-1-(1-hydroxy-3-methylbutan-2-yl)-6-phenyl-1H-imidazo[4,5-b]pyrazin-2(3H)-one], the half-maximal inhibitory concentration (IC50) in series [1] was greater than 30 µM. Same read-out and setting: with `CC(C)[C@H](CO)n1c(=O)[nH]c2ncc(-c3cccc4ncccc34)nc21` [Compound 12, (R)-1-(1-hydroxy-3-methylbutan-2-yl)-6-(quinolin-5-yl)-1H-imidazo[4,5-b]pyrazin-2(3H)-one] the figure was greater than 30 µM; with `C[C@H](c1ccccc1)n1c(=O)[nH]c2nccnc21` [Compound 16, (R)-1-(1-phenylethyl)-1H-imidazo[4,5-b]pyrazin-2(3H)-one], greater than 30 µM; with `C[C@@H](c1ccccc1)n1c(=O)[nH]c2nccnc21` [Compound 17, (S)-1-(1-phenylethyl)-1H-imidazo[4,5-b]pyrazin-2(3H)-one], greater than 30 µM. Same read-out and setting: with `COc1ccc(C(C)C)cc1-c1cnc2[nH]c(=O)n(C(C)C)c2n1` [Compound 18, 1-isopropyl-6-(5-isopropyl-2-methoxyphenyl)-1H-imidazo[4,5-b]pyrazin-2(3H)-one] the figure was 5.1 to 10 µM; with `COc1ccc(C(C)C)cc1-c1cnc2[nH]c(=O)n(C3CCCCC3)c2n1` [Compound 19, 1-cyclohexyl-6-(5-isopropyl-2-methoxyphenyl)-1H-imidazo[4,5-b]pyrazin-2(3H)-one], greater than 30 µM. As a reminder, the melting point is the temperature, or range, at which the solid turns liquid. In turn, `CC(C)c1nc(-c2ccc(-c3cnc4[nH]c(=O)n(CC5CCOCC5)c4n3)cc2)n[nH]1` [Compound 186, 6-(4-(5-Isopropyl-1H-1,2,4-triazol-3-yl)phenyl)-1-((tetrahydro-2H-pyran-4-yl)methyl)-1H-imidazo[4,5-b]pyrazin-2(3H)-one] showed a melting point of 305 to 308 °C.

As to `O=c1[nH]c2ncc(-c3cnc4[nH]cnc4c3)nc2n1CC1CCOCC1` [Compound 190, 6-(3H-imidazo[4,5-b]pyridin-6-yl)-1-((tetrahydro-2H-pyran-4-yl)methyl)-1H-imidazo[4,5-b]pyrazin-2(3H)-one], the melting point lay within 367 to 370 °C.

With `O=c1[nH]c2ncc(-c3ccc(-n4cccn4)cc3)nc2n1CC1CCOCC1` [Compound 192, 6-(4-(1H-Pyrazol-1-yl)phenyl)-1-((tetrahydro-2H-pyran-4-yl)methyl)-1H-imidazo[4,5-b]pyrazin-2(3H)-one], the melting point lay within 294 to 296 °C. Same read-out and setting: with `O=c1[nH]c2ncc(-c3ccc(-c4nnc[nH]4)cc3)nc2n1CCN1CCOCC1` [Compound 193, 6-(4-(4H-1,2,4-Triazol-3-yl)phenyl)-1-(2-morpholinoethyl)-1H-imidazo[4,5-b]pyrazin-2(3H)-one] the figure was 295 to 297 °C. Still for that read-out and setting: with `O=c1[nH]c2ncc(-c3ccc(-c4nc5ccccc5[nH]4)cc3)nc2n1CC1CCOCC1` [Compound 194, 6-(4-(1H-Benzo[d]imidazol-2-yl)phenyl)-1-((tetrahydro-2H-pyran-4-yl)methyl)-1H-imidazo[4,5-b]pyrazin-2(3H)-one] the figure was greater than 300 °C; with `O=c1[nH]c2ncc(-c3ccc(-c4n[nH]c(CO)n4)cc3)nc2n1CC1CCOCC1` [Compound 196, 6-(4-(5-(Hydroxymethyl)-1H-1,2,4-triazol-3-yl)phenyl)-1-((tetrahydro-2H-pyran-4-yl)methyl)-1H-imidazo[4,5-b]pyrazin-2(3H)-one], 258 to 260 °C. Still for that read-out and setting: with `O=C1CCC(Cn2c(=O)[nH]c3ncc(-c4ccc(O)cc4)nc32)N1` (stereo not shown) [Compound 198, 6-(4-Hydroxyphenyl)-1-((5-oxopyrrolidin-2-yl)methyl)-1H-imidazo[4,5-b]pyrazin-2(3H)-one] the figure was 338 to 340 °C; with `Cc1nc(-c2ccc(-c3cnc4[nH]c(=O)n(CC5CCOCC5)c4n3)cc2)[nH]c1C` [Compound 199, 6-(4-(4,5-Dimethyl-1H-imidazol-2-yl)phenyl)-1-((tetrahydro-2H-pyran-4-yl)methyl)-1H-imidazo[4,5-b]pyrazin-2(3H)-one], 250 to 254 °C (dec.).

Turning to `O=c1[nH]c2ncc(-c3ccc(-c4nc[nH]n4)nc3)nc2n1CC1CCOCC1` [Compound 202, 6-(6-(1H-1,2,4-Triazol-3-yl)pyridin-3-yl)-1-((tetrahydro-2H-pyran-4-yl)methyl)-1H-imidazo[4,5-b]pyrazin-2(3H)-one], the melting point is 353 to 356 °C. As for `O=C1CCCN1CCn1c(=O)[nH]c2ncc(-c3ccc(-c4nc[nH]n4)cc3)nc21` [Compound 203, 6-(4-(1H-1,2,4-Triazol-3-yl)phenyl)-1-(2-(2-oxopyrrolidin-1-yl)ethyl)-1H-imidazo[4,5-b]pyrazin-2(3H)-one], the melting point lay within 300 to 301 °C. `COCCNc1ncc(-c2cnc3[nH]c(=O)n(CC4CCCCC4)c3n2)cn1` [Compound 212, 1-(Cyclohexylmethyl)-6-(2-(2-methoxyethylamino)pyrimidin-5-yl)-1H-imidazo[4,5-b]pyrazin-2(3H)-one]: the melting point was greater than 250 °C. Still for that read-out and setting: with `Cc1nc(-c2ccc(-c3cnc4[nH]c(=O)n(CCC5CCOCC5)c4n3)cc2)n[nH]1` [Compound 215, 6-(4-(5-methyl-1H-1,2,4-triazol-3-yl)phenyl)-1-(2-(tetrahydro-2H-pyran-4-yl)ethyl)-1H-imidazo[4,5-b]pyrazin-2(3H)-one] the figure was 290 to 292 °C; with `O=c1[nH]c2ncc(-c3ccc(-c4ncc[nH]4)cc3)nc2n1CCC1CCOCC1` [Compound 216, 6-(4-(1H-imidazol-2-yl)phenyl)-1-(2-(tetrahydro-2H-pyran-4-yl)ethyl)-1H-imidazo[4,5-b]pyrazin-2(3H)-one], 293 to 295 °C; with `NCc1nc(-c2ccc(-c3cnc4[nH]c(=O)n(CCC5CCOCC5)c4n3)cc2)n[nH]1` [Compound 220, 6-(4-(5-(aminomethyl)-1H-1,2,4-triazol-3-yl)phenyl)-1-(2-(tetrahydro-2H-pyran-4-yl)ethyl)-1H-imidazo[4,5-b]pyrazin-2(3H)-one], 258 to 260 °C. On the same count and under the same terms, with `O=c1[nH]c2ncc(-c3ccc4[nH]cnc4c3)nc2n1CCC1CCOCC1` [Compound 227, 6-(1H-benzo[d]imidazol-5-yl)-1-(2-(tetrahydro-2H-pyran-4-yl)ethyl)-1H-imidazo[4,5-b]pyrazin-2(3H)-one] the figure was 264 to 265 °C; with `O=c1[nH]c2ncc(-c3cncnc3)nc2n1CC1CCCCC1` [Compound 230, 1-(Cyclohexylmethyl)-6-(pyrimidin-5-yl)-1H-imidazo[4,5-b]pyrazin-2(3H)-one], greater than 260 °C; with `O=c1[nH]c2ncc(-c3ccc(F)nc3)nc2n1CC1CCOCC1` [Compound 231, 6-(6-Fluoropyridin-3-yl)-1-((tetrahydro-2H-pyran-4-yl)methyl)-1H-imidazo[4,5-b]pyrazin-2(3H)-one], 220 to 222 °C. In turn, `Nc1ccc(-c2cnc3[nH]c(=O)n(CC4CCOCC4)c3n2)cn1` [Compound 232, 6-(6-Aminopyridin-3-yl)-1-((tetrahydro-2H-pyran-4-yl)methyl)-1H-imidazo[4,5-b]pyrazin-2(3H)-one] displayed a melting point greater than 260 °C. On the same count and under the same terms, the value for `CNc1ccc(-c2cnc3[nH]c(=O)n(CC4CCOCC4)c3n2)cn1` [Compound 235, 6-(6-(Methylamino)pyridin-3-yl)-1-((tetrahydro-2H-pyran-4-yl)methyl)-1H-imidazo[4,5-b]pyrazin-2(3H)-one] was greater than 260 °C; that for `Nc1ncc(-c2cnc3[nH]c(=O)n(CC4CCCCC4)c3n2)cn1` [Compound 236, 6-(2-aminopyrimidin-5-yl)-1-(cyclohexylmethyl)-1H-imidazo[4,5-b]pyrazin-2(3H)-one] was greater than 250 °C. In the case of `Cc1cc(-c2nc[nH]n2)ccc1-c1cnc2[nH]c(=O)n(CCC3CCOCC3)c2n1` [Compound 239, 6-(2-methyl-4-(1H-1,2,4-triazol-3-yl)phenyl)-1-(2-(tetrahydro-2H-pyran-4-yl)ethyl)-1H-imidazo[4,5-b]pyrazin-2(3H)-one], the melting point was in the range of 258 to 260 °C.

Compound `CC(C)(O)c1ccc(-c2cnc3[nH]c(=O)n(CC4CCCCC4)c3n2)cn1` [Compound 240, 1-(cyclohexylmethyl)-6-(6-(2-hydroxypropan-2-yl)pyridin-3-yl)-1H-imidazo[4,5-b]pyrazin-2(3H)-one] registered a melting point greater than 250 °C. Same read-out and setting: with `C[C@H](c1ccccc1)n1c(=O)[nH]c2ncc(-c3ccc(-c4nc[nH]n4)cc3)nc21` [Compound 249, (R)-6-(4-(1H-1,2,4-triazol-3-yl)phenyl)-1-(1-phenylethyl)-1H-imidazo[4,5-b]pyrazin-2(3H)-one] the figure was 258 to 260 °C.
